How the values were obtained:
Format in all cases: physicochemical
[1] = Stress stability test for solid state transformation; details: 60° C., 60° C./75% relative humidity and 80° C./75% relative humidity; 4 weeks
Procedure: Polymorph Form C, Form X and mixtures of the two polymorphic forms C+X have all been tested at different conditions of temperature and relative humidity for signs of solid state transformation. The stress stability test was carried out at three sets of conditions: 60° C., 60° C./75% relative humidity and 80° C./75% relative humidity, and samples were analyzed after 1, 2 and 4 weeks, ie. after 7, 14 and 28 days.
One 1.8 ml amber screw top vial (27267-U, Supelco) containing between 50 and 100 mg {4-[(1R,3S)-3-((R)-1-Naphthalen-1-yl-ethylamino)-cyclopentyl]-phenoxy}-acetic acid was tested per individual set of conditions. The vials to be tested at 60° C. were closed with a PTFE lined black polypropylene solid cap (27416, Supelco) and placed in a thermostated heating cabinet. The vials to be tested at 60° C./75% relative humidity and 80° C./75% relative humidity were placed uncapped in a desiccator containing a saturated NaCl solution. The desiccator was subsequently placed in a thermostated heating cabinet.
The samples were analyzed at 1, 2 and 4 weeks for • 1. Visual appearance • 2. HPLC assay and impurities • 3. Polymorph characterization

[2] = Competitive slurrying experiments (XRPD follow-up); details: for Polymorphic stability/conversion in competitive slurrying: MeOH suspension 30 mg/mL, 14 days, 5° C., room temperature and reflux (65° C.)
Procedure: The suspensions at 5° C. and r.t. were prepared in 4 mL vials with caps and equipped with a small magnetic stirrer bar. The suspensions were stirred at approximately 500 rpm. for two weeks. The suspensions prepared at high temperature were prepared in 10 mL Erlenmeyer flask equipped with a magnetic stirrer bar and reflux condenser.
Samples of the suspensions were taken at time=0, 1 day, 7 days and 14 days and investigated by XRPD.

[3] = Aqueous solubility as a function of pH; details: room temperature, conclusion from Table 6
Procedure: The aqueous solubility of Form C and Form X was determined as a function of pH at 25° C. in 0.1N HCl (pH 1.0) and in Sorensen phosphate buffers at pH 2.0, 4.0, 6.0 and 8.0. For each pH value two individual determinations were made. Form C or Form X was weighed out (11 mg for pH 1, 4 mg for pH 2-8) in scintillation vials and 4 ml 0.1N HCl or buffer was added. The vials were shaken for 24 hours at 25° C. After 24 hours it was checked that the vial still contained undissolved material. The suspensions were filtered through a 0.45 μm filter, which was first saturated with app. 0.5 ml filtrate. The resulting filtrates were diluted and analyzed by HPLC vs. a standard curve.

[4] = Thermo gravimetric analysis (TGA); details: Graph 4a (Form C sample), ±2° C.
Procedure: Thermo gravimetric analysis (TGA): TGA experiments were conducted using a Perkin Elmer Pyris 1 TGA instrument. About 10-20 mg of sample was loaded into a ceramic pan for the measurements. The sample temperature was ramped from 25 to 350° C. at 10° C./min. Nitrogen was used as the purge gas at a flow rate of 40 mL/min.

[5] = Transition temperature of the enantiotropic polymorphs from melting enthalpy and melting points; details: estimated from melting enthalpy and melting points of Form C and Form X
Procedure: From careful measurements of melting enthalpy and melting points of both forms, the transition temperature has been estimated to lie between 120 to 145° C.
Differential scanning calorimetry (DSC): DSC experiments were carried out using a Perkin Elmer DSC8500 system. About 0.5-3 mg of sample was used for the measurements. An aluminium pan was used for the analysis and was sealed by applying pressure by hand and pushing each part of the pan together. The temperature was ramped from −60 to 270° C. at 20° C./min. Nitrogen was used as the purge gas with a flow rate of 20 mL/min.

SMILES	4 week stress stability test, solid state transformation [1]	Polymorphic stability/conversion in competitive slurrying [2]	Solubility of Form X relative to Form C [3]	Polymorphic conversion in competitive slurrying ([2]; competitive slurrying at 110° C.)	Polymorphic stability/conversion in competitive slurrying ([2]; listed as mixtures of Form X+C)	Transition temperature at which the two polymorphs are equally stable ([2]; lower bound from competitive slurrying of Form C and Form X)	Temperature below which stable towards degradation (TGA trail) [4]	Transition temperature (estimated) [5]
C[C@@H](NC1CCC(c2ccc(OCC(=O)O)cc2)C1)c1cccc2ccccc12 (stereo in doubt) [Form C, {4-[(1R,3S)-3-((R)-1-Naphthalen-1-yl-ethylamino)-cyclopentyl]-phenoxy}-acetic acid]	without any solid state transformation	stable at all three temperatures						
C[C@@H](NC1CCC(c2ccc(OCC(=O)O)cc2)C1)c1cccc2ccccc12 (stereo in doubt) [Form X, {4-[(1R,3S)-3-((R)-1-Naphthalen-1-yl-ethylamino)-cyclopentyl]-phenoxy}-acetic acid]	without any solid state transformation	convert to pure Form C at all three temperatures	higher compared to Form C	transformation of Form X to Form C				
C[C@@H](NC1CCC(c2ccc(OCC(=O)O)cc2)C1)c1cccc2ccccc12 (stereo in doubt) [{4-[(1R,3S)-3-((R)-1-Naphthalen-1-yl-ethylamino)-cyclopentyl]-phenoxy}-acetic acid]	without any solid state transformation				convert to pure Form C at all three temperatures	above 110 °C	below 255 °C	120 to 145 °C

Reference: patent publication US9056814B2, “Polymorphic form of a calcimimetic compound” (LEO PHARMA A/S, priority 2010, dated 2015)
